Molecular target: T1, KDM4C (Homo sapiens, UniProt Q9H3R0)
T1 construct: N-terminal GST-tagged KDM4C^2-372 was purchased from BPS Biosciences; GST (N); purchased BPS Biosciences
T1 sequence (Q9H3R0 2-372): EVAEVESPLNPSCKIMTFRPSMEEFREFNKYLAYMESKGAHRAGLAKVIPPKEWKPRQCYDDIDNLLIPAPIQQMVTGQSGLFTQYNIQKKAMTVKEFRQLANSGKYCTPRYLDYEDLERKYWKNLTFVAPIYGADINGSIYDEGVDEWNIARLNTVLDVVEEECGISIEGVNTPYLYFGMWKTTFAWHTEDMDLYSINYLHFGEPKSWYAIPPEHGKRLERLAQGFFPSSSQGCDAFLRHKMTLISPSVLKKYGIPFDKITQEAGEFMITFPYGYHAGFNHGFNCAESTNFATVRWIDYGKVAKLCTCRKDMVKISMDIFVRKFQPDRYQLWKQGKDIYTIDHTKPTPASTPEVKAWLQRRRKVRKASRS
Test: KDM4C Assay (SAMDI mass spectrometry demethylase assay)
Format: biochemical
Details: N-terminal GST-tagged KDM4C 2-372; class symbols; read-out: 4C IC50
In short: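 GST-tagged KDM4C 2-372 (5 nM) preincubated 30 min with compound, then H3K9me3 biotinylated peptide (500 nM) and 2-oxoglutarate (15 μM) added in HEPES pH 8.0 with ascorbate, Fe(II), TCEP; 150 min at 25 °C, formic-acid quench. Conversion by SAMDI mass spectrometry from substrate/product peak AUC; IC50 from dose-response.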

IC50: 10 to 100 µM
Structure (SMILES): O=C(O)c1ccncc1Nc1c(-c2ccccc2)cnn1CCN1CCC(F)(F)CC1 [Compound 15, 3-((1-(2-(4,4-difluoropiperidin-1-yl)ethyl)-4-phenyl-1H-pyrazol-5-yl)amino)isonicotinic acid]

From patent publication US20170291890A1 (Epizyme, Inc., priority 2014, published 2017)
